Laboratory results from US20260217653A1, “CRYSTALLINE COMPOUND OF AN LPAR1 ANTAGONIST” (CONTINEUM THERAPEUTICS, INC., priority 2023, published 2026).
Entries after “also recorded” stand apart in the source; their conditions may differ.

Columns and labels:
human LPAR1 = target: T1, human LPAR1 (Homo sapiens, UniProt Q92633); experiment: In vitro functional assay of lysophosphatidic acid receptor 1 activity (calcium flux, Fluo-4 NW, LPA 18:1 at EC80); assay type: cell-based; conditions: B103 cells stably expressing human LPAR1
T1 construct: by own knowledge a rat neuroblastoma line
Description: Primary compound plates were prepared in 100% DMSO (Sigma-Aldrich), secondary compound plates were prepared at 10× concentration in DMEM (Invitrogen), and tertiary compound plates were prepared at 3× concentration in assay buffer containing HBSS (no Ca^+2/Mg^−2. Invitrogen) and 0.1% BSA (Sigma-Aldrich). Fluo-4 NW calcium assay dye (Invitrogen) was prepared as per manufacturer's recommendations in assay buffer. B103 cells stably expressing human LPAR1 (J. Chun lab, UCSD) were grown to confluency in DMEM media (Invitrogen) containing 10% FBS (ATCC), […] (Sigma-Aldrich) and […] (Sigma-Aldrich), and detached with Accutase (Sigma-Aldrich) prior to assay. The freshly detached cells were resuspended in growth media and plated in black, clear-bottom 96-well plates (Costar) containing compound (i.e., secondary compound plate) at a density of 5×10^4 cells/well. Once plated, cells were left at room temperature for 30 minutes and then transferred to a 37° C. 5% CO2 incubator for 24 hours. […] Finally, lysophosphatidic acid (18:1) at the EC80 concentration was added and calcium flux measured using FlexStation 3 (Molecular Devices). Sigmoidal dose-response curves were generated by measuring […] over 45 sec and calculating the area under the curve. […]

[1] = Bulk stability of Pattern A (XRPD, HPLC, color) after 1 week storage; assay type: physicochemical; conditions: for Bulk (XRPD) form after storage / Color after storage / Bulk (HPLC) purity after storage: Solid state, 1 week; for Bulk (HPLC) purity after storage: initial purity 99.9%
Description: Bulk stability of Pattern A was evaluated at 25° C./92% RH in an open container, at 40° C./75% RH in an open container, and at 60° C. in a tight container over 1 week. […] Pattern A crystalline polymorph was placed at 25° C./92% RH in an open container, at 40° C./75% RH in an open container, and at 60° C. in a closed container for 1 week. Samples after the stress were characterized by XRPD and HPLC and inspected for color change.

[2] = Wet granulation simulation experiments (XRPD); assay type: physicochemical
Description: Feasibility of formulation process for Pattern A was evaluated by compression, grinding, and granulation simulation experiments. […] Water or ethanol was added drop wise to about 20 mg of Pattern A crystalline polymorph until the sample was wetted sufficiently. Wet sample was ground gently with a mortar and pestle. Post granulation sample was dried under ambient condition for 3 min. Potential form change and degree of crystallinity were evaluated by XRPD.

[3] = Compression simulation experiments (hydraulic press, XRPD); assay type: physicochemical; conditions: for Comments (crystallinity after compression) / XRPD after compression: 5 minutes
Description: Feasibility of formulation process for Pattern A was evaluated by compression, grinding, and granulation simulation experiments. […] About 10 mg of Pattern A crystalline polymorph was compressed for 5 minutes under 5 MPa and 10 MPa with a hydraulic press. Potential form change and degree of crystallinity were evaluated by XRPD.

[4] = Dry grinding simulation experiments (mortar and pestle, XRPD); assay type: physicochemical
Description: Feasibility of formulation process for Pattern A was evaluated by compression, grinding, and granulation simulation experiments. […] About 20 mg of Pattern A crystalline polymorph was ground manually with a mortar and pestle for 1, 3, and 5 min. Potential form change and degree of crystallinity were evaluated by XRPD.

[5] = Water sorption and desorption (hygroscopicity) by dynamic vapor sorption (DVS); assay type: physicochemical; conditions: 25° C.
Description: Hygroscopicity of Pattern A was evaluated by dynamic vapor sorption (DVS) test at 25° C. with a cycle of 40→0→95→0→40% RH at a rate of change in mass per time unit of 0.002% per minute. […] It absorbed about 1.2% water at 80% RH and 3.1% water at 95% RH at 25° C. (FIG. 8). […] Water sorption and desorption behavior of Pattern A crystalline polymorph was investigated by DVS at 25° C. with a cycle of 40-0-95-0-40% RH, dm/dt 0.002, minimum equilibration time 60 min, and maximum equilibration time 360 min. XRPD was measured after the DVS test to determine form change.

[6] = grinding time 1 min, mortar and pestle

T1 sequence (Q92633 whole entry): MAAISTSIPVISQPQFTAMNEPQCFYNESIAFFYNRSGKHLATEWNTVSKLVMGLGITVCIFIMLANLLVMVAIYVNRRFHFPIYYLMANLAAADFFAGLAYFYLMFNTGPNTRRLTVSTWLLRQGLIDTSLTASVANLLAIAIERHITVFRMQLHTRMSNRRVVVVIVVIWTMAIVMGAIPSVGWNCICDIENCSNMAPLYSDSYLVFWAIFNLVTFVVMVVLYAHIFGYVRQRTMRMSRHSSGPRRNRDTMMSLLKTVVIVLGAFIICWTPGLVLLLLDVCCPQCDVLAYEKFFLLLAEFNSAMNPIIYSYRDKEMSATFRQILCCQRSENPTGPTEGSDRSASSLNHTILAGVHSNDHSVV

COc1ccc(NC(=O)N(c2ccccc2C(C)C)[C@H]2CC[C@H](C(=O)O)CC2)c(OC(F)F)n1 [trans-4-(3-(2-(difluoromethoxy)-6-methoxypyridin-3-yl)-1-(2-isopropylphenyl)ureido)cyclohexane-1-carboxylic acid]
IC50 (human LPAR1): 10 nM

COc1ccc(NC(=O)N(c2ccccc2C(C)C)[C@H]2CC[C@H](C(=O)O)CC2)c(OC(F)F)n1 [Pattern A, trans-4-(3-(2-(difluoromethoxy)-6-methoxypyridin-3-yl)-1-(2-isopropylphenyl)ureido)cyclohexane-1-carboxylic acid]
Bulk stability (physical and chemical) ([1]; 25° C./92% RH open container, 40° C./75% RH open container, 60° C. tight container, over 1 week): physically and chemically stable
Bulk (XRPD) form after storage ([1]; 25° C./92% RH, open container): Pattern A (FIG. 7)
Color after storage ([1]; 25° C./92% RH, open container): No change
Bulk (HPLC) purity after storage ([1]; 25° C./92% RH, open container): 99.9%
Bulk (XRPD) form after storage ([1]; 40° C./75% RH, open container): Pattern A (FIG. 7)
Color after storage ([1]; 40° C./75% RH, open container): No change
Bulk (HPLC) purity after storage ([1]; 40° C./75% RH, open container): 99.9%
Bulk (XRPD) form after storage ([1]; 60° C., tight container): Pattern A (FIG. 7)
Color after storage ([1]; 60° C., tight container): No change
Bulk (HPLC) purity after storage ([1]; 60° C., tight container): 99.9%
Comments (crystallinity after wet granulation) ([2]; granulation solvent ethanol): Peaks becoming broader; also recorded: Partial amorphization; also recorded: Significant decrease in
XRPD after wet granulation ([2]; granulation solvent ethanol): Pattern A
Comments (crystallinity after wet granulation) ([2]; granulation solvent water): Significant decrease in; also recorded: Peaks becoming broader; also recorded: Partial amorphization
XRPD after wet granulation ([2]; granulation solvent water): Pattern A
Crystallinity/form upon wet granulation ([2]; wet granulation with ethanol or water): partial amorphization was observed
Comments (crystallinity after compression) ([3]; 5 MPa): Slight decrease in crystallinity; also recorded: Peaks becoming broader
XRPD after compression ([3]; 5 MPa): Pattern A
Comments (crystallinity after compression) ([3]; 10 MPa): Slight decrease in crystallinity; also recorded: Peaks becoming broader
XRPD after compression ([3]; 10 MPa): Pattern A
Crystallinity change upon compression ([3]; compression (5 MPa and 10 MPa)): only slight crystallinity decrease
Form change upon compression ([3]; compression (5 MPa and 10 MPa)): no form change
Form after manual grinding ([4]; after 3 minutes of grinding with a mortar and pestle): converted to practically amorphous form
Comments (crystallinity after dry grinding) [4, 6]: Peaks becoming broader; also recorded: Partial amorphization
XRPD after dry grinding [4, 6]: Pattern A
XRPD after dry grinding ([4]; grinding time 3 min, mortar and pestle): Almost amorphous
XRPD after dry grinding ([4]; grinding time 5 min, mortar and pestle): Almost amorphous
1st desorp. Weight % change ([5]; 0% RH): 0.03%
1st sorp. Weight % change ([5]; 0% RH): 0.03%
2nd desorp. Weight % change ([5]; 0% RH): 0.00%
2nd sorp. Weight % change ([5]; 0% RH): 0.00%
1st desorp. Weight % change ([5]; 10% RH): 0.05%
1st sorp. Weight % change ([5]; 10% RH): 0.05%
2nd desorp. Weight % change ([5]; 10% RH): 0.02%
2nd sorp. Weight % change ([5]; 10% RH): 0.02%
1st desorp. Weight % change ([5]; 20% RH): 0.05%
1st sorp. Weight % change ([5]; 20% RH): 0.05%
2nd desorp. Weight % change ([5]; 20% RH): 0.03%
2nd sorp. Weight % change ([5]; 20% RH): 0.02%
1st desorp. Weight % change ([5]; 30% RH): 0.06%
1st sorp. Weight % change ([5]; 30% RH): 0.05%
2nd desorp. Weight % change ([5]; 30% RH): 0.03%
2nd sorp. Weight % change ([5]; 30% RH): 0.02%
1st desorp. Weight % change ([5]; 40% RH): 0.06%
1st sorp. Weight % change ([5]; 40% RH): 0.05%
2nd desorp. Weight % change ([5]; 40% RH): 0.04%
2nd sorp. Weight % change ([5]; 40% RH): 0.03%
1st sorp. Weight % change ([5]; 50% RH): 0.06%
2nd desorp. Weight % change ([5]; 50% RH): 0.35%
1st sorp. Weight % change ([5]; 60% RH): 0.06%
2nd desorp. Weight % change ([5]; 60% RH): 0.64%
1st sorp. Weight % change ([5]; 70% RH): 0.07%
2nd desorp. Weight % change ([5]; 70% RH): 0.84%
1st sorp. Weight % change ([5]; 80% RH): 1.15%
2nd desorp. Weight % change ([5]; 80% RH): 1.16%
Hygroscopicity ([5]; 80% RH): slightly hygroscopic
Water absorbed ([5]; 80% RH): about 1.2%
1st sorp. Weight % change ([5]; 90% RH): 1.93%
2nd desorp. Weight % change ([5]; 90% RH): 1.93%
1st sorp. Weight % change ([5]; 95% RH): 3.06%
2nd desorp. Weight % change ([5]; 95% RH): 3.06%
Hygroscopicity ([5]; 95% RH): hygroscopic
Water absorbed ([5]; 95% RH): ~3.1%
XRPD after DVS test ([5]; after cycle 40-0-95-0-40% RH): still Pattern A; also recorded: No form change (FIG. 9)
